{"source": "patent US20050118226A1", "about": "“Methods for treating ACAT-related diseases” (priority 2003, published 2005)", "key": {"[1]": {"system": "γ-secretase", "assay": "In vitro generation of APP intracellular domain (AICD), γ-secretase activity assay on CHO cell membrane fractions", "type": "biochemical, Chinese hamster", "settings": "CHO cell (overexpressing APP) membrane fractions, increasing amounts of compound", "protocol": "Membrane preparation and in vitro generation of AICD were performed as described (Gu et al., 2001; Kim et al., 2002). P2 membrane fractions were prepared from CHO cells overexpressing wild type APP and resuspended in Buffer H (20 mM HEPES, 150 mM NaCl, 10% glycerol, 5 mM EDTA, pH 7.4) with protease inhibitors. In vitro cleavage experiments were performed by incubating the membrane fractions at 0° C. or 37° C. for 1 hour with the indicated amounts of CP-113,818. As a negative control, a specific γ-secretase inhibitor, L-685,458, was added to one of the samples."}, "[2]": {"biological_target": "T1, purified recombinant human BACE1 (Homo sapiens, UniProt P56817)", "T1 construct": "purchased R&D systems", "T1 sequence (P56817 46-501)": "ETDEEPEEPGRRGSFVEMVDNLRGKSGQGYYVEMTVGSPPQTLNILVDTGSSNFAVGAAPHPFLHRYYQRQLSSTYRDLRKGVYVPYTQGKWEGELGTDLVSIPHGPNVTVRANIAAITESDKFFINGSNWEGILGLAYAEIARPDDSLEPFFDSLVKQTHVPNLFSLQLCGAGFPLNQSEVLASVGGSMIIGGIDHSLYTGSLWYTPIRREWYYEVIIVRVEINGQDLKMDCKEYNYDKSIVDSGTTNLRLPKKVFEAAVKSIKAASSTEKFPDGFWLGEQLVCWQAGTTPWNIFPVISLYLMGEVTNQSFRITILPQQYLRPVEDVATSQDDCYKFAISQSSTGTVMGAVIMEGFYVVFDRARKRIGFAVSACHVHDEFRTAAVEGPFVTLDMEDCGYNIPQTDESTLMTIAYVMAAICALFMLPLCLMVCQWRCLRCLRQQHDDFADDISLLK", "assay": "In vitro fluorometric BACE1 activity assay", "type": "biochemical", "settings": "increasing amounts of compound, 2 hours", "protocol": "A fluorometric β-secretase activity kit was used for detecting BACE1 activity in vitro. Reaction was done according to the manufacturer's instructions with slight modifications. Briefly, 1 μg of purified recombinant human BACE1 (R&D systems) was resuspended in 10 μl of 1× cell extraction buffer (R&D systems) and incubated with EDANS/DABCYL-[…] substrate peptide in the absence or presence of indicated account of CP-113,818 for 2 hours. Released EDANS fluorescence was measured by a fluorescent plate reader (Analyst AD, LJL Biosystems). As a negative control, a specific β-secretase inhibitor, GL-189 (Calbiochem) was added to one of the samples with the indicated concentration."}, "[3]": {"system": "PSAPP mice", "settings": "250 mg/kg/day orally, 5 weeks; cited from earlier work"}, "[4]": {"system": "CHO cells", "settings": "4 μM; cited from earlier work"}, "[5]": {"system": "Tg2576 mice", "settings": "12 month-old female Tg2576 mice, 3 weeks; cited from earlier work"}}, "note": "Where a SMILES comes first, the peptide text is derived from it. [ ]: non-standard residue; d: D form. Sta = CC(C)C[C@H](N)[C@@H](O)CC(=O)O"}
{"smiles": "CC(C)C[C@H](NC(=O)[C@H](Cc1ccccc1)C[C@@H](O)[C@H](Cc1ccccc1)NC(=O)OC(C)(C)C)C(=O)N[C@@H](Cc1ccccc1)C(N)=O", "note": "[L-685,458]", "values": [{"measurement": "effect on γ-secretase activity (AICD generation) in vitro", "setting": "[1]", "result": "inhibits APP intracellular domain (AICD) generation"}]}
{"smiles": "CC(C)C[C@H](NC(=O)[C@H](CC(N)=O)NC(=O)[C@@H](NC(=O)[C@@H](N)CCC(=O)O)C(C)C)[C@@H](O)CC(=O)N[C@H](C(=O)N[C@@H](C)C(=O)N[C@@H](CCC(=O)O)C(=O)N[C@@H](Cc1ccccc1)C(N)=O)C(C)C", "note": "[GL-189] (H-EVN[Sta]VAEF-NH2)", "values": [{"measurement": "effect on BACE1 activity in vitro", "setting": "[2]", "result": "significantly reduces BACE1 activity"}]}
{"smiles": "O=C(O)c1ccc(CCN2CCN(C/C=C/c3ccc(Cl)cc3)CC2)cc1", "note": "[BM15.766]", "values": [{"measurement": "reduction of amyloid load", "setting": "[3]", "result": 53, "unit": "%"}, {"measurement": "reduction of formic acid-extracted Aβ40", "setting": "[3]", "result": 58, "unit": "%"}, {"measurement": "reduction of formic acid-extracted Aβ42", "setting": "[3]", "result": 48, "unit": "%"}]}
{"smiles": "CC(C)c1cc(C(C)C)c(CC(=O)NS(=O)(=O)Oc2c(C(C)C)cccc2C(C)C)c(C(C)C)c1", "note": "[avasimibe]", "values": [{"measurement": "inhibition of Aβ generation", "setting": "[4]", "result": "approximately 60%"}]}
{"smiles": "CC[C@H](C)C(=O)O[C@H]1C[C@@H](C)C=C2C=C[C@H](C)[C@H](CC[C@@H]3C[C@@H](O)CC(=O)O3)[C@H]21", "note": "[lovastatin]", "values": [{"measurement": "Aβ pathology in female animals", "setting": "[5]", "result": "increasing Aβ pathology"}]}
